Results: patent publication US20220040086A1, “FORMULATION AND AEROSOL CANISTERS, INHALERS, AND THE LIKE CONTAINING THE FORMULATION” (KINDEVA DRUG DELIVERY L.P., priority 2018, published 2022)

Experiments:
[1] = Rehydration of anhydrous ipratropium bromide (sample weight over time); assay type: physicochemical
Experimental: The weight of the powder after heating was 9.563 g. The sample was weighed every 10 minutes for 90 minutes and then left over the weekend at 24° C. and 30% humidity.
The sample was then placed in a desiccator for 24 hours and weighed again.

[2] = 50 mg in 2 g Malvern dispersant (lecithin in isooctane), sonicated 3 minutes
[3] = 30 mg in 30 mL 2H,3H-decafluoropentane, sonic probe 1 minute
Experimental: 30 mg of the resulting anhydrous ipratropium bromide was added to a glass sample jar followed by 30 mL of 2H,3H-decafluoropentane.

[4] = general statement
Text: The two formulations were examined by microscope after 2 and 4 weeks storage at ambient temperature and humidity. Each vial was sprayed onto a microscope slide via a standard 3M MK6 actuator.

[5] = Differential scanning calorimetry thermogram; assay type: physicochemical; conditions: DSC thermogram
Text: Ipratropium, in particular ipratropium bromide, is commercially available as a hydrate, and more particularly as the monohydrate. Dehydration of hydrated ipratropium, in particular ipratropium bromide monohydrate, can be achieved by any suitable method. […] A particularly suitable method is heating the particulate ipratropium, in particular ipratropium bromide monohydrate, in a drying oven for a period of time. The drying oven can be heated to a temperature high enough to remove the water. […] Useful oven temperatures at ambient pressure include at least 100° C., at least 110° C., at least 120° C., at least 125° C., no greater than 240° C., no greater than 230° C., no greater than 225° C., between 100° C. and 240° C., between 110° C. and 230° C., between 120° C. and 220° C., between 125° C. and 215° C., or more particularly about 125° C. The use of pressures less than ambient pressure, such as in a vacuum oven, can be useful in reducing the temperature for dehydration. The time necessary to dehydrate the particulate ipratropium, in particular ipratropium bromide monohydrate, is the amount of time it takes to remove the desired amount of water from the particulate ipratropium. If the amount of water in a sample of particulate ipratropium is known, complete dehydration is complete when the mass of the remaining ipratropium is essentially anhydrous ipratropium. […]

CC(C)[N+]1(C)[C@@H]2CC[C@H]1CC(OC(=O)C(CO)c1ccccc1)C2.[Br-] (stereo partly shown) [anhydrous ipratropium bromide]
Sample weight ([1]; 10 mins): 9.597 g | Sample weight ([1]; 20 mins): 9.600 g | Sample weight ([1]; 30 mins): 9.601 g | Sample weight ([1]; 40 mins): 9.602 g | Sample weight ([1]; 50 mins): 9.603 g | Sample weight ([1]; 60 mins): 9.603 g | Sample weight ([1]; 70 mins): 9.602 g | Sample weight ([1]; 80 mins): 9.602 g | Sample weight ([1]; 90 mins): 9.603 g | Sample weight ([1]; 2.5 days at 24° C. and 30% humidity): 9.606 g | weight decrease relative to unmicronized ipratropium bromide monohydrate starting material ([1]; after 2.5 days at 24° C. and 30% humidity (9.606 g)): 3.94% | Sample weight ([1]; after a further 24 hours in a desiccator): 9.568 g | weight loss relative to unmicronized ipratropium bromide monohydrate starting material ([1]; after a further 24 hours in a desiccator (9.568 g)): 4.14% | agglomerates under a microscope [2]: essentially free of agglomerates | dispersion appearance [2]: dispersed satisfactorily | agglomeration observed with magnifying glass (x10) [3]: significant agglomeration

CC(C)[N+]1(C)[C@@H]2CC[C@H]1CC(OC(=O)C(CO)c1ccccc1)C2.[Br-] (stereo partly shown) [anhydrous micronized ipratropium bromide]
stability when formulated in a HFA propellant [4]: stable

CC(C)[N+]1(C)[C@@H]2CC[C@H]1C[C@@H](OC(=O)C(CO)c1ccccc1)C2.O.[Br-] (stereo partly shown) [ipratropium bromide monohydrate]
degradation temperature [5]: approximately 240 °C | water loss starting temperature [5]: approximately 100 °C

CC(C)[N+]1(C)[C@@H]2CC[C@H]1C[C@@H](OC(=O)C(CO)c1ccccc1)C2.O.[Br-] (stereo partly shown) [micronized ipratropium bromide monohydrate]
agglomerates under a microscope [2]: essentially free of agglomerates | dispersion appearance [2]: dispersed satisfactorily | agglomeration observed with magnifying glass (x10) [3]: not
